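Dose response: 5 concentrations. Exposure: 48 h. Format: 96-well plates. Endpoint: linear interpolation; highest concentration if not reached. GI50 marks 50% less growth.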 The source made the active and inactive calls. Cut-off read from the data, not from the text of the source: active = GI50 up to about 1.1 µM and inactive = higher.
Key:
Experiment in all cases: NCI-60 cell line screen, 48 h
HOP-18 = test system: HOP-18
M14 = test system: M14
A549 = test system: A549
SF-295 = test system: SF-295
RXF 631 = test system: RXF 631
M19-MEL = test system: M19-MEL
Malme-3M = test system: Malme-3M
RPMI-8226 = test system: RPMI-8226
SK-MEL-2 = test system: SK-MEL-2
HL-60 = test system: HL-60
786-0 = test system: 786-0
KM12 = test system: KM12
SNB-19 = test system: SNB-19
HCT-116 = test system: HCT-116
KM-20L2 = test system: KM-20L2
SF-268 = test system: SF-268
SF-539 = test system: SF-539
UACC-62 = test system: UACC-62
K562 = test system: K562
NCI-H226 = test system: NCI-H226
MOLT-4 = test system: MOLT-4
LOX IMVI = test system: LOX IMVI
SK-MEL-28 = test system: SK-MEL-28
ACHN = test system: ACHN
OVCAR-5 = test system: OVCAR-5
EKVX = test system: EKVX
SN12C = test system: SN12C
SK-MEL-5 = test system: SK-MEL-5
DLD-1 = test system: DLD-1
A498 = test system: A498
SW-620 = test system: SW-620
HOP-92 = test system: HOP-92
OVCAR-4 = test system: OVCAR-4
SNB-75 = test system: SNB-75
LXFL 529 = test system: LXFL 529
XF498 = test system: XF498
HCC 2998 = test system: HCC 2998
IGROV-1 = test system: IGROV-1
OVCAR-8 = test system: OVCAR-8
HCT-15 = test system: HCT-15
NCI-H23 = test system: NCI-H23
OVCAR-3 = test system: OVCAR-3
CAKI-1 = test system: CAKI-1
RXF 393 = test system: RXF 393
CCRF-CEM = test system: CCRF-CEM
TK-10 = test system: TK-10
NCI-H522 = test system: NCI-H522
DMS-273 = test system: DMS-273
HOP-62 = test system: HOP-62
U-251 = test system: U-251
HT-29 = test system: HT-29
NCI-H460 = test system: NCI-H460
UACC-257 = test system: UACC-257
UO-31 = test system: UO-31
SK-OV-3 = test system: SK-OV-3
SNB-78 = test system: SNB-78
COLO 205 = test system: COLO 205
DMS-114 = test system: DMS-114
SR = test system: SR

SMILES: CCOC(=O)/C(=C/c1ccccc1Br)P(=O)(OCC)OCC
- GI50 (HOP-18): 3.34 µM (inactive)
- GI50 (M14): 1.54 µM (inactive)
- GI50 (A549): 2.67 µM (inactive)
- GI50 (SF-295): 3.96 µM (inactive)
- GI50 (RXF 631): 2.5 µM (inactive)
- GI50 (M19-MEL): 1.55 µM (inactive)
- GI50 (Malme-3M): 1.84 µM (inactive)
- GI50 (RPMI-8226): 0.815 µM (active)
- GI50 (SK-MEL-2): 1.84 µM (inactive)
- GI50 (HL-60): 0.226 µM (active)
- GI50 (786-0): 1.34 µM (inactive)
- GI50 (KM12): 1.87 µM (inactive)
- GI50 (SNB-19): 2.49 µM (inactive)
- GI50 (HCT-116): 3.15 µM (inactive)
- GI50 (KM-20L2): 2.25 µM (inactive)
- GI50 (SF-268): 2.9 µM (inactive)
- GI50 (SF-539): 2.4 µM (inactive)
- GI50 (UACC-62): 1.24 µM (inactive)
- GI50 (K562): 0.298 µM (active)
- GI50 (NCI-H226): 3.07 µM (inactive)
- GI50 (MOLT-4): 2.28 µM (inactive)
- GI50 (LOX IMVI): 1.39 µM (inactive)
- GI50 (SK-MEL-28): 2.03 µM (inactive)
- GI50 (ACHN): 2.57 µM (inactive)
- GI50 (OVCAR-5): 2.53 µM (inactive)
- GI50 (EKVX): 2.58 µM (inactive)
- GI50 (SN12C): 2.06 µM (inactive)
- GI50 (SK-MEL-5): 1.63 µM (inactive)
- GI50 (DLD-1): 1.29 µM (inactive)
- GI50 (A498): 3.19 µM (inactive)
- GI50 (SW-620): 1.28 µM (inactive)
- GI50 (HOP-92): 1.46 µM (inactive)
- GI50 (OVCAR-4): 1.58 µM (inactive)
- GI50 (SNB-75): 1.48 µM (inactive)
- GI50 (LXFL 529): 1.29 µM (inactive)
- GI50 (XF498): 1.93 µM (inactive)
- GI50 (HCC 2998): 1.78 µM (inactive)
- GI50 (IGROV-1): 3.28 µM (inactive)
- GI50 (OVCAR-8): 1.91 µM (inactive)
- GI50 (HCT-15): 1.78 µM
- GI50 (NCI-H23): 1.73 µM (inactive)
- GI50 (OVCAR-3): 2.81 µM (inactive)
- GI50 (CAKI-1): 2.09 µM (inactive)
- GI50 (RXF 393): 1.17 µM (inactive)
- GI50 (CCRF-CEM): 0.738 µM (active)
- GI50 (TK-10): 3.23 µM (inactive)
- GI50 (NCI-H522): 0.927 µM (active)
- GI50 (DMS-273): 1.26 µM (inactive)
- GI50 (HOP-62): 3.72 µM (inactive)
- GI50 (U-251): 1.59 µM (inactive)
- GI50 (HT-29): 2.82 µM (inactive)
- GI50 (NCI-H460): 2.87 µM (inactive)

SMILES: CCCCCCCCCC(=O)N[C@H]1CCc2cc(OC)c(OC)c(OC)c2-c2ccc(SC)c(=O)cc21
- GI50 (M14): 0.0226 µM (active)
- GI50 (A549): 0.0376 µM (active)
- GI50 (UACC-257): 0.0417 µM (active)
- GI50 (SF-295): 0.0274 µM (active)
- GI50 (RXF 631): 0.0197 µM (active)
- GI50 (M19-MEL): 0.0445 µM (active)
- GI50 (Malme-3M): 0.0226 µM (active)
- GI50 (RPMI-8226): 0.0422 µM (active)
- GI50 (HL-60): 0.034 µM (active)
- GI50 (786-0): 0.0393 µM (active)
- GI50 (KM12): 0.0209 µM (active)
- GI50 (SNB-19): 0.0329 µM (active)
- GI50 (HCT-116): 0.0209 µM (active)
- GI50 (KM-20L2): 0.0198 µM (active)
- GI50 (SF-268): 0.0223 µM (active)
- GI50 (SF-539): 0.0224 µM (active)
- GI50 (UACC-62): 0.0353 µM (active)
- GI50 (UO-31): 0.231 µM (active)
- GI50 (K562): 0.0395 µM (active)
- GI50 (NCI-H226): 0.0231 µM (active)
- GI50 (MOLT-4): 0.0392 µM (active)
- GI50 (LOX IMVI): 0.043 µM (active)
- GI50 (SK-OV-3): 0.0238 µM (active)
- GI50 (SNB-78): 0.0405 µM (active)
- GI50 (ACHN): 0.0507 µM (active)
- GI50 (OVCAR-5): 29.7 µM (inactive)
- GI50 (EKVX): 0.0527 µM (active)
- GI50 (SN12C): 0.0365 µM (active)
- GI50 (SK-MEL-5): 0.024 µM (active)
- GI50 (DLD-1): 0.0352 µM (active)
- GI50 (A498): 0.0255 µM (active)
- GI50 (COLO 205): 0.00345 µM (active)
- GI50 (DMS-114): 0.0188 µM (active)
- GI50 (SW-620): 0.0316 µM (active)
- GI50 (HOP-92): 0.0168 µM (active)
- GI50 (OVCAR-4): 0.408 µM (active)
- GI50 (SNB-75): 0.0395 µM (active)
- GI50 (LXFL 529): 0.0297 µM (active)
- GI50 (XF498): 0.022 µM (active)
- GI50 (HCC 2998): 0.0247 µM (active)
- GI50 (IGROV-1): 0.0387 µM (active)
- GI50 (OVCAR-8): 0.0338 µM (active)
- GI50 (SR): 0.0328 µM (active)
- GI50 (HCT-15): 0.0313 µM
- GI50 (NCI-H23): 0.0216 µM (active)
- GI50 (OVCAR-3): 0.0226 µM (active)
- GI50 (CAKI-1): 0.056 µM (active)
- GI50 (RXF 393): 0.0224 µM (active)
- GI50 (CCRF-CEM): 0.0426 µM (active)
- GI50 (TK-10): 0.759 µM (active)
- GI50 (NCI-H522): < 0.01 µM (active)
- GI50 (DMS-273): < 0.01 µM (active)
- GI50 (HOP-62): 0.0478 µM (active)
- GI50 (U-251): 0.0274 µM (active)
- GI50 (HT-29): 0.0261 µM (active)
- GI50 (NCI-H460): 0.0347 µM (active)

SMILES: COc1ccc(C2ON(c3ccccn3)CC=C2C)cc1 (stereo not drawn)
- GI50 (HOP-18): > 100 µM (inactive)
- GI50 (M14): > 100 µM (inactive)
- GI50 (A549): > 100 µM (inactive)
- GI50 (UACC-257): > 100 µM (inactive)
- GI50 (SF-295): > 100 µM (inactive)
- GI50 (RXF 631): > 100 µM (inactive)
- GI50 (M19-MEL): > 100 µM (inactive)
- GI50 (Malme-3M): > 100 µM (inactive)
- GI50 (RPMI-8226): 60.1 µM (inactive)
- GI50 (SK-MEL-2): > 100 µM (inactive)
- GI50 (HL-60): > 100 µM (inactive)
- GI50 (786-0): > 100 µM (inactive)
- GI50 (KM12): > 100 µM (inactive)
- GI50 (SNB-19): > 100 µM (inactive)
- GI50 (KM-20L2): > 100 µM (inactive)
- GI50 (SF-268): > 100 µM (inactive)
- GI50 (SF-539): > 100 µM (inactive)
- GI50 (UACC-62): > 100 µM (inactive)
- GI50 (UO-31): 34.5 µM (inactive)
- GI50 (K562): > 100 µM (inactive)
- GI50 (NCI-H226): > 100 µM (inactive)
- GI50 (MOLT-4): 96.4 µM (inactive)
- GI50 (LOX IMVI): > 100 µM (inactive)
- GI50 (SK-OV-3): > 100 µM (inactive)
- GI50 (SNB-78): > 100 µM (inactive)
- GI50 (SK-MEL-28): > 100 µM (inactive)
- GI50 (ACHN): > 100 µM (inactive)
- GI50 (OVCAR-5): 36.5 µM (inactive)
- GI50 (EKVX): > 100 µM (inactive)
- GI50 (SN12C): > 100 µM (inactive)
- GI50 (SK-MEL-5): > 100 µM (inactive)
- GI50 (DLD-1): > 100 µM (inactive)
- GI50 (COLO 205): > 100 µM (inactive)
- GI50 (DMS-114): > 100 µM (inactive)
- GI50 (SW-620): > 100 µM (inactive)
- GI50 (OVCAR-4): > 100 µM (inactive)
- GI50 (SNB-75): > 100 µM (inactive)
- GI50 (LXFL 529): > 100 µM (inactive)
- GI50 (XF498): > 100 µM (inactive)
- GI50 (HCC 2998): > 100 µM (inactive)
- GI50 (IGROV-1): > 100 µM (inactive)
- GI50 (OVCAR-8): > 100 µM (inactive)
- GI50 (SR): 58.9 µM (inactive)
- GI50 (HCT-15): > 100 µM
- GI50 (NCI-H23): 78.3 µM (inactive)
- GI50 (OVCAR-3): > 100 µM (inactive)
- GI50 (CAKI-1): > 100 µM (inactive)
- GI50 (RXF 393): > 100 µM (inactive)
- GI50 (CCRF-CEM): > 100 µM (inactive)
- GI50 (NCI-H522): 47.4 µM (inactive)
- GI50 (DMS-273): > 100 µM (inactive)
- GI50 (HOP-62): > 100 µM (inactive)
- GI50 (U-251): > 100 µM (inactive)
- GI50 (HT-29): > 100 µM (inactive)
- GI50 (NCI-H460): > 100 µM (inactive)
